Laboratory results reported in ChEMBL document CHEMBL2390909, “2-Arylpaullones are selective antitrypanosomal agents” (Eur J Med Chem, 2013).

Experiments:
[1] = Selectivity index, ratio of GI50 for human THP1 macrophages to GI50 for blood stage of Trypanosoma brucei rhodesiense STIB 900
[2] = Cytotoxicity against human THP1 macrophages after 48 hrs by Alamar Blue assay; format: cell-based; details: THP-1 macrophages
[3] = system: Trypanosoma brucei rhodesiense; experiment: Antitrypanosomal activity against blood stage of Trypanosoma brucei rhodesiense STIB 900 (S704) Tanzania after 70 hrs by Alamar Blue assay; format: functional; details: STIB 900, 70 h

GI50 [3] [µM] | SMILES | RatioGI50 [1] | GI50 at 48 h [2] [µM]
0.61 | CC(C)(C)c1ccc2[nH]c3c(c2c1)CC(=O)Nc1ccc(C(=O)/C=C/c2ccccc2)cc1-3 | >163.9 | > 100
0.72 | COc1ccc(-c2ccc3c(c2)-c2[nH]c4ccc(C(C)(C)C)cc4c2CC(=O)N3)cc1 | >138.9 | > 100
1.6 | COc1cccc(-c2ccc3c(c2)-c2[nH]c4ccc(C(C)(C)C)cc4c2CC(=O)N3)c1 | >62.5 | > 100
2.3 | CN(C)c1cccc(-c2ccc3c(c2)-c2[nH]c4ccc(C(C)(C)C)cc4c2CC(=O)N3)c1 | 40.8 | 93.9
0.76 | CC(C)(C)c1ccc2[nH]c3c(c2c1)CC(=O)Nc1ccc(-c2ccc4c(c2)OCO4)cc1-3 | >131.6 | > 100
0.51 | CC(C)(C)c1ccc2[nH]c3c(c2c1)CC(=O)Nc1ccc(-c2ccc(N4CCOCC4)cc2)cc1-3 | 156.9 | 80
2.3 | CC(C)(C)c1ccc2[nH]c3c(c2c1)CC(=O)Nc1ccc(CCC(=O)c2ccccc2)cc1-3 | >88.8 | > 100
3.9 | CC(C)(C)c1ccc2[nH]c3c(c2c1)CC(=O)Nc1ccc(/C=C/C(=O)N2CCOCC2)cc1-3 | 3.5 | 13.7
4.7 | CC(C)(C)c1ccc2[nH]c3c(c2c1)CC(=O)Nc1ccc(/C=C/C(=O)N2CCCCC2)cc1-3 | 1.3 | 6.2
1.1 | CCN(CC)C(=O)/C=C/c1ccc2c(c1)-c1[nH]c3ccc(C(C)(C)C)cc3c1CC(=O)N2 | 3.7 | 4.1
3.5 | CC(C)(C)c1ccc2[nH]c3c(c2c1)CC(=O)Nc1ccc(/C=C/C(=O)NCc2ccccc2)cc1-3 | <1 | 0.93
24.4 | CN1CCN(C(=O)/C=C/c2ccc3c(c2)-c2[nH]c4ccc(C(C)(C)C)cc4c2CC(=O)N3)CC1 | <1 | 17.8
1.5 | CC(C)(C)c1ccc2[nH]c3c(c2c1)CC(=O)Nc1ccc(/C=C/C(=O)Nc2ccccc2)cc1-3 | <1 | 0.34
1.6 | CC(C)(C)c1ccc2[nH]c3c(c2c1)CC(=O)Nc1ccc(/C=C/C(=O)Nc2cccc(Cl)c2)cc1-3 | <1 | 0.85
2.5 | CC(C)(C)c1ccc2[nH]c3c(c2c1)CC(=O)Nc1ccc(/C=C/C(=O)Nc2ccc(Cl)cc2)cc1-3 | <1 | 0.47
1.7 | Cc1ccc(NC(=O)/C=C/c2ccc3c(c2)-c2[nH]c4ccc(C(C)(C)C)cc4c2CC(=O)N3)cc1 | <1 | 1.3

GI50 [3] [µM] | SMILES | RatioGI50 [1] | GI50 at 48 h [2] [µM]
1.5 | COc1ccc(NC(=O)/C=C/c2ccc3c(c2)-c2[nH]c4ccc(C(C)(C)C)cc4c2CC(=O)N3)cc1 | <1 | 0.36
1.8 | CC(C)(C)c1ccc2[nH]c3c(c2c1)CC(=O)Nc1ccc(-c2ccccc2)cc1-3 | >55.6 | > 100
1.7 | COCCc1ccc(OCc2cccc(-c3ccc4c(c3)-c3[nH]c5ccc(C(C)(C)C)cc5c3CC(=O)N4)c2)cc1 | 7.6 | 12.9
2.6 | CC(C)(C)c1ccc2[nH]c3c(c2c1)CC(=O)Nc1ccc(-c2ccc(C(F)(F)F)cc2)cc1-3 | 21.2 | 55.1
3 | CC(C)(C)c1ccc2[nH]c3c(c2c1)CC(=O)Nc1ccc(-c2ccc(OC(F)(F)F)cc2)cc1-3 | >33.3 | > 100
4 | CC(C)(C)c1ccc2[nH]c3c(c2c1)CC(=O)Nc1ccc(/C=C/C(=O)c2ccccc2)cc1-3 | 4.4 | 17.6
12.2 | COc1ccc(C(=O)/C=C/c2ccc3c(c2)-c2[nH]c4ccc(C(C)(C)C)cc4c2CC(=O)N3)cc1 | 2.7 | 32.6
18.3 | CC(C)(C)c1ccc2[nH]c3c(c2c1)CC(=O)Nc1ccc(/C=C/C(=O)c2ccc(Cl)cc2)cc1-3 | 2.2 | 40.8
0.57 | CC(C)(C)c1ccc2[nH]c3c(c2c1)CC(=O)Nc1ccc(/C=C/C(=O)c2ccco2)cc1-3 | 2.3 | 1.3
9 | CC(C)(C)c1ccc2[nH]c3c(c2c1)CC(=O)Nc1ccc(/C=C/C(=O)c2cccnc2)cc1-3 | 8.7 | 47.9
2.6 | COc1cc(C(=O)/C=C/c2ccc3c(c2)-c2[nH]c4ccc(C(C)(C)C)cc4c2CC(=O)N3)cc(OC)c1OC | 5.6 | 14.7
1.2 | COc1ccc(OC)c(C(=O)/C=C/c2ccc3c(c2)-c2[nH]c4ccc(C(C)(C)C)cc4c2CC(=O)N3)c1 | 1.8 | 2.2
5.4 | COc1ccc(C(=O)/C=C/c2ccc3c(c2)-c2[nH]c4ccc(C(C)(C)C)cc4c2CC(=O)N3)c(OC)c1 | 5.8 | 31.4
4.2 | COc1ccc(C(=O)/C=C/c2ccc3c(c2)-c2[nH]c4ccc(C(C)(C)C)cc4c2CC(=O)N3)cc1OC | 2.3 | 9.6
1.1 | CC(C)(C)c1ccc2[nH]c3c(c2c1)CC(=O)Nc1ccc(/C=C/C(=O)c2cccs2)cc1-3 | 3.4 | 3.7
7.4 | CC(C)(C)c1ccc2[nH]c3c(c2c1)CC(=O)Nc1ccc(/C=C/C(=O)c2ccc(O)cc2)cc1-3 | 9.8 | 72.6
